According to US20240109898A1, “SUBSTITUTED PYRAZOLO[1,5-A]PYRIMIDINE-7-AMINE DERIVATIVES, COMPOSITIONS AND PHARMACEUTICAL USES THEREOF” (SHANGHAI HAIYAN PHARMACEUTICAL TECHNOLOGY CO., LTD., priority 2021, published 2024):

Tests used:
Type in all cases: biochemical
CDK2/CycA = CDK2/CycA (Homo sapiens (Human), UniProt P24941); assay: LANCE Ultra kinase activity inhibition assay, CDK2/CycA; details: ATP 10 μM, highest compound concentration 10 μM
From the text: (§1) In the following LANCE Ultra test methods, kinase reagents were purchased from Carna Bioscience, reaction substrates and detection reagents were purchased from PerkinElmer, and the remaining reagents were purchased from Thermo scientific.
(§2) The assay for each kinase includes three test groups, i.e., a background group (Blank), a non-inhibition group (PC), and compound testing group (Test). The components included in each test group were as follows:
(§3) Working concentrations of the respective components of the Test groups in different kinase reactions were as follows.
(§4) Compounds: 10 mM of the compound to be tested was dissolved at room temperature and diluted with DMSO to gradient concentrations, followed by diluting with deionized water to prepare a 4× working solution of the compound, and the content of DMSO was 2%. The highest concentration of compound used in the CDK1 and CDK2 assays was 10 μM, and that in CDK9 assay was 1 μM.
(§5) The working concentration of DMSO in the reaction was 0.5%.
(§6) The above-mentioned components, after being mixed, were placed on a shaker and incubated at room temperature in the dark for 1 h. 10 μL of test solution was then added to all test groups (including Blank, PC and Test groups).
(§7) After the test solution was added, the solution was placed on a shaker and continually incubated at room temperature for 1 h in the dark. […] The inhibition rate was calculated as below.
(§8) 2. Inhibition rate=(PCRatio-TestRatio)/(PCRatio-BlankRatio)*100%; and
(§9) 3. XLFIT 5.0 software (IDBS, UK) was used to fit a graph by using the logarithmic value of the compound concentration as the X-axis and the inhibition rater as the Y-axis, and a four-parameter model was used to calculate the half inhibitory concentration IC50 of the compound.

CDK9/CycT = CDK9/CycT (Homo sapiens (Human), UniProt P50750); assay: LANCE Ultra kinase activity inhibition assay, CDK9/CycT; details: ATP 10 μM, highest compound concentration 1 μM
Procedure: as §1
The inhibiting effects on the kinase activity of CDK1/CycB (Carna bioscience, #04-102), CDK2/CycA (Carna bioscience, #04-103) and CDK9/CycT (Carna bioscience, #04-110) were determined by using LANCE Ultra method.
The kinase activity test was performed using a system (10 μL) containing the following components: substrate diluent prepared by mixing CDK kinase diluent, Ulight-Myelic basic protein (Perkin Elmer, #TRF-0109, hereinafter referred to as U-MBP) and ATP (Thermo scientific, #PV3227); and the compounds (i.e., analyte) prepared in the examples of the present disclosure. The assay for each kinase includes three test groups, i.e., a background group (Blank), a non-inhibition group (PC), and compound testing group (Test). The components included in each test group were as follows:
as §3, §4
1.33×reaction buffer: the components include 26.7 mM of MOPS, 6.67 mM of MgCl2, and 0.0133% Tween-20, which were stored in a 4° C. refrigerator and protected from light after preparation. Freshly prepared DTT was added to a final concentration of 5.33 mM before use.
as §5, §6
10 μL of test solution contains the following components: 16 mM of EDTA (Thermo scientific, #15575), 1 nM of phosphorylated U-MBP protein antibody (Perkin Elmer, #TRF-0201), and 1× detection damping fluid (Perkin Elmer, #CR97-100).
After the test solution was added, the solution was placed on a shaker and continually incubated at room temperature for 1 h in the dark. At the end of incubation, Victor X5 fluorescence microplate reader of Perkin Elmer was used to read the signal; the wavelength of excitation light was 320 nm, and the wavelengths of emission light were 615 nm and 665 nm. The inhibition rate was calculated as below.
1. For all groups, a value of 665 nm/615 nm (hereinafter referred to as Ratio) was calculated, and an inhibition rate was calculated based on the Ratio of each group;
as §8, §9

CDK1/CycB = CDK1/CycB (Homo sapiens (Human), UniProt P06493); assay: LANCE Ultra kinase activity inhibition assay, CDK1/CycB; details: ATP 4 μM, highest compound concentration 10 μM
From the text: as §1, §2, §3, §4, §5, §6, §7, §8, §9

CDK1/CycB, sequence (P06493 whole entry): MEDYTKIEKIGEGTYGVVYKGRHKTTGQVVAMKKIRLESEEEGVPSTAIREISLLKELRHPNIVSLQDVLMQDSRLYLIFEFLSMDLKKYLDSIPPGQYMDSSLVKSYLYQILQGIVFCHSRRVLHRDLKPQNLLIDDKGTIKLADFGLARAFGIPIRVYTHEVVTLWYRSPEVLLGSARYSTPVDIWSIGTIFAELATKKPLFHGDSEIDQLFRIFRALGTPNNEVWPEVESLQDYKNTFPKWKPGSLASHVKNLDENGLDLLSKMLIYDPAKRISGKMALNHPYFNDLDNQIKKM
CDK1/CycB, sequence (P14635 whole entry partner): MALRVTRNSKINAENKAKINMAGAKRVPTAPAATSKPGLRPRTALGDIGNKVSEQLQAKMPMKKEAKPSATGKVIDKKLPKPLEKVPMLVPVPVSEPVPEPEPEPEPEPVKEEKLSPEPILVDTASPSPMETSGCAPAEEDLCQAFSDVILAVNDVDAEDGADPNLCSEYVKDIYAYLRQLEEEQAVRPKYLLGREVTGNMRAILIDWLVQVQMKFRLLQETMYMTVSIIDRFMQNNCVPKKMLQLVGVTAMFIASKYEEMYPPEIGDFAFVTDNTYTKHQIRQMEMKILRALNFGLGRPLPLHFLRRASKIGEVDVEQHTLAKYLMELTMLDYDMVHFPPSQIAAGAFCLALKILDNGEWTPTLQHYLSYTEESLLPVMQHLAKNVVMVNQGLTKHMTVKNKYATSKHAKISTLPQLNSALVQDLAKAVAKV
CDK9/CycT, sequence (P50750 whole entry): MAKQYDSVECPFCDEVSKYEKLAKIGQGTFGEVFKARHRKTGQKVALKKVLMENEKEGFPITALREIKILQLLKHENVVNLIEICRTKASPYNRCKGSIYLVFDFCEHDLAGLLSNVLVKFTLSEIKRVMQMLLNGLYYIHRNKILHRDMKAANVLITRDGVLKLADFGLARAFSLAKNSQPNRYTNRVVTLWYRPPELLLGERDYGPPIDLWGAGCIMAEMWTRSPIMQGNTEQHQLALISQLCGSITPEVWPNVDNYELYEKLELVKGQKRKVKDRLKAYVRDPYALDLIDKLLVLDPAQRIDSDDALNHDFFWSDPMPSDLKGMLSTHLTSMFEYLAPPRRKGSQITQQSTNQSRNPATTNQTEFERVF
CDK9/CycT, sequence (O60563 whole entry partner): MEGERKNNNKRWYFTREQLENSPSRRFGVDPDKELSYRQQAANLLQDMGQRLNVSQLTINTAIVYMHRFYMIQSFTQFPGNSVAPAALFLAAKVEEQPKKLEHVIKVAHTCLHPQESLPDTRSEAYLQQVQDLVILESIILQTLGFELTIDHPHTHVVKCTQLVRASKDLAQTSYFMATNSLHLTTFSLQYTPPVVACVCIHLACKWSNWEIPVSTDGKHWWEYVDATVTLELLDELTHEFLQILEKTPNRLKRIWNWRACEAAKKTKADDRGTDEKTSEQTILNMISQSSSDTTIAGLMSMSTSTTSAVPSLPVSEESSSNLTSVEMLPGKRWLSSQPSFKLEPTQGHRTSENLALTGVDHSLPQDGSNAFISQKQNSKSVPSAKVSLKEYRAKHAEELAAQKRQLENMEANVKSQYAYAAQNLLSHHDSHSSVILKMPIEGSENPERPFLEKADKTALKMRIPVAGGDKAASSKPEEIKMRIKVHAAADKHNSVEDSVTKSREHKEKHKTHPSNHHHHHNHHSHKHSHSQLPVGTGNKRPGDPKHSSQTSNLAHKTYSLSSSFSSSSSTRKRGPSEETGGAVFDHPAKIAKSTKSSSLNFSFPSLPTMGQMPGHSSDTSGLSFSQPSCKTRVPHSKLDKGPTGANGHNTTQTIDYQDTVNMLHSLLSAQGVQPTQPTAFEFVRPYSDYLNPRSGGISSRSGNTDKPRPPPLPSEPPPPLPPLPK

| SMILES | IC50 (CDK2/CycA) | IC50 (CDK9/CycT) | IC50 (CDK1/CycB) |
| --- | --- | --- | --- |
| N[C@H]1CC[C@H](Nc2cc(C(F)(F)C3CC3)nc3ccnn23)C1 [Compound Z-37] | > 10 µM | 0.027 µM | 7.18 µM |
| CC(C)(c1cc(N[C@H]2CC[C@H](N)C2)n2nccc2n1)C1CCC1 [Compound Z-39] | > 10 µM | 0.034 µM | 2.48 µM |
| Cc1cnn2c(N[C@H]3CC[C@H](N)C3)cc(C(C)(C)C3CCC3)nc12 [Compound Z-40] | > 10 µM | 0.048 µM | > 10 µM |
| N[C@H]1CC[C@H](Nc2cc([C@@H](F)C3CCC3)nc3ccnn23)C1 [Compound Z-41-P1] | > 10 µM | 0.047 µM | 4.59 µM |
| N[C@H]1CC[C@H](Nc2cc([C@H](F)C3CCC3)nc3ccnn23)C1 [Compound Z-41-P2] | 3.77 µM | 0.013 µM | 2.97 µM |
| N[C@H]1CC[C@H](Nc2cc(C(F)C3CCCC3)nc3ccnn23)C1 (stereo partly drawn) [Compound Z-42] | 8.5 µM | 0.022 µM | 3.3 µM |
| CCC(c1cc(N[C@H]2CC[C@H](N)C2)n2nccc2n1)C1CCC1 (stereo partly drawn) [Compound Z-43] | > 10 µM | 0.056 µM | 7.1 µM |
| COC[C@H](c1cc(N[C@H]2CC[C@H](N)C2)n2nccc2n1)C1CC1 [Compound Z-44] | > 10 µM | 0.082 µM | > 10 µM |
| CC(C)(c1cc(N[C@H]2CC[C@H](N)C2)n2ncc(Cl)c2n1)C1CCC1 [Compound Z-46] | 1.81 µM | 0.01 µM | 1.15 µM |
| CC(c1cc(NC2CCN(N)C2)n2ncc(Cl)c2n1)C1CC1 (stereo not drawn) [Compound Z-47] | 1.91 µM | 0.035 µM | 1.04 µM |
| CC(c1cc(NC2CCN(N)C2)n2ncc(Cl)c2n1)C1CC1 (stereo not drawn) [Compound Z-48] | 2.22 µM | 0.068 µM | 1.47 µM |
| COC(c1cc(N[C@H]2CC[C@H](N)C2)n2nccc2n1)C1CC1 (stereo partly drawn) [Compound Z-49] | > 10 µM | 0.062 µM | > 10 µM |
| N[C@H]1CC[C@H](Nc2cc(CC3CCC3)nc3ccnn23)C1 [Compound Z-50] | > 10 µM | 0.064 µM | 6.57 µM |
| Cc1cnn2c(N[C@H]3CC[C@H](N)C3)cc(CC3CCC3)nc12 [Compound Z-51] | 7.75 µM | 0.065 µM | 7.76 µM |
| Cc1cnn2c(N[C@H]3CC[C@H](N)C3)cc(CC3CC3)nc12 [Compound Z-52] | 6.15 µM | 0.032 µM | 7.15 µM |
| N[C@H]1CC[C@H](Nc2cc(C(F)C3CC3)nc3ccnn23)C1 (stereo partly drawn) [Compound Z-53] | > 10 µM | 0.047 µM | 4.86 µM |
| C=Cc1cnn2c(N[C@H]3CC[C@H](N)C3)cc(C(C)C3CC3)nc12 (stereo partly drawn) [Compound Z-60] | 3.2 µM | 0.024 µM | 2.49 µM |

Now from value to compound:

| IC50 (CDK2/CycA) | IC50 (CDK9/CycT) | IC50 (CDK1/CycB) | SMILES |
| --- | --- | --- | --- |
| 2.65 µM | 0.016 µM | 2.16 µM | N[C@H]1CC[C@H](Nc2cc(CC3CC3)nc3c(F)cnn23)C1 [Compound Z-54] |
| 1.91 µM | 0.015 µM | 1.94 µM | N[C@H]1CC[C@H](Nc2cc(CC3CC3)nc3c(Cl)cnn23)C1 [Compound Z-55] |
| > 10 µM | 0.058 µM | 4.97 µM | C=CCC(C)(C)c1cc(N[C@H]2CC[C@H](N)C2)n2nccc2n1 [Compound Z-57] |
| > 10 µM | 0.02 µM | 5.31 µM | C=CC(C)(C)c1cc(N[C@H]2CC[C@H](N)C2)n2ncc(F)c2n1 [Compound Z-58] |
| > 10 µM | 0.024 µM | 1.82 µM | C[C@@H](c1cc(N[C@H]2C[C@H](N)C2)n2nccc2n1)C1CC1 [Compound Z-62-P2] |
| 4.72 µM | 0.017 µM | 1.54 µM | CC(c1cc(N[C@H]2C[C@H](N)C2)n2nccc2n1)C1CC1 (stereo partly drawn) [Compound Z-62] |
| 0.278 µM | 0.014 µM | 0.84 µM | CC(=O)N[C@H]1CC[C@H](Nc2cc(C(C)C3CC3)nc3c(Cl)cnn23)C1 (stereo partly drawn) [Compound Z-63] |
| 3.46 µM | 0.015 µM | 2.31 µM | CC(=N)N[C@H]1CC[C@H](Nc2cc(C(C)C3CC3)nc3c(Cl)cnn23)C1 (stereo partly drawn) [Compound Z-64] |
| 2.3 µM | 0.019 µM | 1.24 µM | CC(c1cc(N[C@H]2CC[C@H](NC(=N)N)C2)n2ncc(Cl)c2n1)C1CC1 (stereo partly drawn) [Compound Z-65] |
| 0.332 µM | 0.018 µM | 0.995 µM | CC(=N)N[C@H]1CC[C@H](Nc2cc(C(C3CC3)C3CC3)nc3c(Cl)cnn23)C1 [Compound Z-66] |
| > 10 µM | 0.044 µM | 4.59 µM | CCC(c1cc(N[C@H]2CC[C@H](NC(=N)N)C2)n2nccc2n1)C1CC1 (stereo partly drawn) [Compound Z-67] |
| 4.68 µM | 0.025 µM | 3.47 µM | CC(=N)N[C@H]1CC[C@H](Nc2cc(C(C3CC3)C3CC3)nc3c(C(F)(F)F)cnn23)C1 [Compound Z-68] |
| > 10 µM | 0.058 µM | > 10 µM | CCC(c1cc(N[C@H]2CC[C@H](NC(C)=N)C2)n2nccc2n1)C1CC1 (stereo partly drawn) [Compound Z-69] |
| 3.88 µM | 0.023 µM | 2.26 µM | N[C@H]1CC[C@H](Nc2cc(C(F)C3CCC3)nc3ccnn23)C1 (stereo partly drawn) [Compound Z-70] |
| 4.53 µM | 0.028 µM | 1.88 µM | CC(c1cc(N[C@H]2CC[C@H](NC(=N)N)C2)n2ncc(F)c2n1)C1CC1 (stereo partly drawn) [Compound Z-71] |
| 6.57 µM | 0.02 µM | 4.89 µM | CC(=N)N[C@H]1CC[C@H](Nc2cc(C(C)C3CC3)nc3c(F)cnn23)C1 (stereo partly drawn) [Compound Z-72] |
| 3.68 µM | 0.018 µM | 2.57 µM | CC(=N)N[C@H]1CC[C@H](Nc2cc(C(C3CC3)C3CC3)nc3c(F)cnn23)C1 [Compound Z-73] |
| > 10 µM | 0.417 µM | > 10 µM | CC(c1cc(N[C@H]2C[C@@H](N)C2)n2nccc2n1)C1CC1 (stereo partly drawn) [Compound Z-74] |
